Test results taken from patent publication US9162010B2, “Drug eluting cochlear implants” (Tepha, Inc., priority 2010, dated 2015).

What was measured:
spiral ganglion cells = test: Spiral ganglion cell survival by anti-neurofilament antibody staining and microscopic counting; type: cell-based, Sprague-Dawley rats; conditions: for impact on viability of SGC: concentrations between 10^-12 and 10^-6 mol/L; for viability (survival) of spiral ganglion cells at high concentration: concentration of 10^-5 mol/L (FIG. 3)
Protocol: Spiral ganglion cells were freshly isolated from Sprague-Dawley rats (p3-5). Viable cells were suspended in Dulbecco's Modified Eagle's Medium supplemented with 10% fetal calf serum and 50 ng/ml BDNF and were seeded onto laminin- and ornithin-coated cell culture plates at a density of 1.5×10^4 cells/well. After a cultivation time of 48 hours, cells were stained with anti-neurofilament antibody and counted under a microscope. All experiments were performed in quadruplicate and the experiment was repeated four times.
(§1) Discs (0.1 mm thick and 6 mm in diameter) of poly(L-lactide) (PLLA, Resomer L214, Boehringer Ingelheim Pharma GmbH & Co. KG, Ingelheim, Germany), poly(4-hydroxybutyrate) (P(4HB), Tepha, Inc., Lexington, Mass., USA) and silicone were placed at the bottom of standard 96-well tissue culture plates. Microtiter plates without material additions served as controls. Cells were seeded into each of the different cell culture wells and the assays were carried out as described above in Examples 1 and 2. For absorption measurements when using NIH-3T3 cells and neutral red test, the supernatant of all wells was transferred into new wells after permeabilization of the cells. Surviving spiral ganglion cells were stained directly on the polymer discs and counted.

NIH-3T3 fibroblasts = test: Neutral Red assay of NIH-3T3 fibroblast viability; type: cell-based; conditions: for impact on viability of NIH-3T3 cells: concentrations between 10^-12 and 10^-6 mol/L; for effect on NIH-3T3 cell viability: drug at concentrations between 10^-12 and 10^-4 mol/L, relative to control (no drug), 48 hours
Protocol: Cell survival and viability of NIH-3T3 fibroblasts were measured using a Neutral Red Assay. NIH-3T3 fibroblasts were seeded into 96-well cell culture plates at a density of 10^4 cells/well in Dulbecco's Modified Eagle's Medium supplemented with 10% fetal calf serum. After 48 hours, cells were stained using a Neutral Red Assay. Neutral red is taken up only by living cells.
After incubation for 3 hours and several washing steps, cells were permeabilized and the neutral red solubilized in the supernatant. The absorption measured at 570 nm is proportional to the number of living cells. Measurements were run in quintuplicate and results were averaged. The experiment was repeated at least four times.
as §1
The NIH-3T3 fibroblasts were cultured and assayed with Neutral Red according to Example 1, except that dexamethasone or sirolimus were added to the cell culture at concentrations between 10^−12 and 10^−4 mol/L. The percentage of viable NIH-3T3 cells was assayed relative to the control (no drug) and the results are shown in FIGS. 2 (dexamethasone) and 3 (sirolimus).

Row | SMILES | increase of spiral ganglion cell viability (spiral ganglion cells; concentrations between 10^-11 to 10^-7 mol/L (FIG. 2)) | impact on viability of SGC (spiral ganglion cells) | effect on spiral ganglion cell viability (spiral ganglion cells; drug at concentrations between 10^-12 and 10^-4 mol/L, relative to control (no drug), 48 hours) | impact on viability of NIH-3T3 cells (NIH-3T3 fibroblasts) | effect on NIH-3T3 cell viability (NIH-3T3 fibroblasts) | viability (survival) of spiral ganglion cells at high concentration (spiral ganglion cells) | viability (survival) of spiral ganglion cells at high concentration (spiral ganglion cells; listed as Sirolimus)
1 | C[C@@H]1C[C@H]2[C@@H]3CCC4=CC(=O)C=C[C@]4(C)[C@@]3(F)[C@@H](O)C[C@]2(C)[C@@]1(O)C(=O)CO [dexamethasone] | ~20% | do not have an adverse impact | no toxic effects | do not have an adverse impact | no toxic effects | – | –
2 | CO[C@H]1C[C@@H]2CC[C@@H](C)[C@@](O)(O2)C(=O)C(=O)N2CCCC[C@H]2C(=O)O[C@H]([C@H](C)C[C@@H]2CC[C@@H](O)[C@H](OC)C2)CC(=O)[C@H](C)/C=C(\C)[C@@H](O)[C@@H](OC)C(=O)[C@H](C)C[C@H](C)/C=C/C=C/C=C/1C [sirolimus] | – | do not have an adverse impact | – | do not have an adverse impact | only a small decrease | reduced | substantially reduced
